Measured values from the supplement of paper PMC10307832.

Tests used:
Experiment in all cases: relative viability (nuclei count vs DMSO), 5 days (fraction); higher = more cells survive
VX-702 + Trametinib = compound: NC(=O)c1ccc(N(C(N)=O)c2c(F)cccc2F)nc1-c1ccc(F)cc1F [VX-702] + CC(=O)Nc1cccc(-n2c(=O)n(C3CC3)c(=O)c3c(Nc4ccc(I)cc4F)n(C)c(=O)c(C)c32)c1 [Trametinib] (partner 0.02 µM)
How it was run: (§1)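 Cells from lung cancer lines were seeded into 1536-well plates and, one day later, dosed by pin tool. Treatments were either a single drug or a fixed dose of an anchor drug with five library-drug doses (not always all listed) in √10 steps. After 5 days, nuclei were stained in a one-step fixation (final 0.05% Triton X-100, 1% formaldehyde, 1 ug/ml Hoechst) and counted on 4× images, and relative viability is the treated-to-vehicle nuclei ratio, as the median of duplicate plates.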

VX-702 + Pictilisib = compound: NC(=O)c1ccc(N(C(N)=O)c2c(F)cccc2F)nc1-c1ccc(F)cc1F [VX-702] + CS(=O)(=O)N1CCN(Cc2cc3nc(-c4cccc5[nH]ncc45)nc(N4CCOCC4)c3s2)CC1 [Pictilisib] (partner 1 µM)
How it was run: as §1

VX-702 + Foretinib = compound: NC(=O)c1ccc(N(C(N)=O)c2c(F)cccc2F)nc1-c1ccc(F)cc1F [VX-702] + COc1cc2c(Oc3ccc(NC(=O)C4(C(=O)Nc5ccc(F)cc5)CC4)cc3F)ccnc2cc1OCCCN1CCOCC1 [Foretinib] (partner 0.25 µM)
How it was run: as §1

Dabrafenib + Dasatinib = compound: CC(C)(C)c1nc(-c2cccc(NS(=O)(=O)c3c(F)cccc3F)c2F)c(-c2ccnc(N)n2)s1 [Dabrafenib] + Cc1nc(Nc2ncc(C(=O)Nc3c(C)cccc3Cl)s2)cc(N2CCN(CCO)CC2)n1 [Dasatinib] (partner 0.075 µM)
How it was run: as §1

Cell Line	relative viability (VX-702 + Trametinib; first compound 0.02 µM)	relative viability (VX-702 + Trametinib; first compound 0.2 µM)	relative viability (VX-702 + Trametinib; first compound 0.6325 µM)	relative viability (VX-702 + Trametinib; first compound 2 µM)	relative viability (VX-702 + Pictilisib; first compound 0.02 µM)	relative viability (VX-702 + Pictilisib; first compound 0.2 µM)	relative viability (VX-702 + Pictilisib; first compound 0.6325 µM)	relative viability (VX-702 + Pictilisib; first compound 2 µM)	relative viability (VX-702 + Foretinib; first compound 0.02 µM)	relative viability (VX-702 + Foretinib; first compound 0.2 µM)	relative viability (VX-702 + Foretinib; first compound 0.6325 µM)	relative viability (VX-702 + Foretinib; first compound 2 µM)	relative viability (Dabrafenib + Dasatinib; first compound 0.003 µM)	relative viability (Dabrafenib + Dasatinib; first compound 0.009487 µM)	relative viability (Dabrafenib + Dasatinib; first compound 0.03 µM)	relative viability (Dabrafenib + Dasatinib; first compound 0.09487 µM)	relative viability (Dabrafenib + Dasatinib; first compound 0.3 µM)
HOP-62	0.419	0.397	0.469	0.45	0.852	0.652	0.597	0.683	1.18	1.19	1.25	1.33	0.509	0.738	0.588	0.603	0.539
IA-LM					0.298	0.324	0.265	0.352	1.21	1.1	1.2	1.15					
LC-2-ad	0.948	0.916	0.921	0.97	0.472	0.45	0.446	0.433	0.765	0.958	0.838	0.99		0.802	0.518	0.512	0.677
LCLC-97TM1	0.197	0.192	0.185	0.202	0.148	0.21	0.121	0.192	0.836	0.923	0.938	0.991	0.574	0.847	0.843	0.36	0.534
LCLC-103H	0.723	0.743	0.665	0.711	0.638	0.621	0.666	0.613	0.71	0.702	0.534	0.881	0.495	0.526	0.513	0.447	0.379
LK-2	0.591	0.696	0.568	0.788	0.457		0.385	0.594	0.985	1.21	1.08	1.11	0.208	0.274		0.285	0.276
LOU-NH91	0.828	0.763	0.768	0.743	0.545	0.489	0.491	0.53	0.94	0.973	0.994	0.704	0.41	0.573	0.582	0.49	0.568
LU99A	0.563	0.532	0.512	0.5	0.316	0.297	0.292	0.318	0.871	0.677	0.786	0.721	0.662	0.569	0.423	0.464	0.41
LXF-289	0.718	0.648	0.691	0.703	0.85	0.785	0.818	0.784	1.04	0.962	0.958	0.98	0.175	0.2	0.211	0.195	0.192
NCI-H23	0.4	0.411	0.392	0.413	0.506	0.424	0.464	0.652	0.961	1.03	1.15	1.21		0.814	0.873	0.625	0.666
NCI-H322M	0.543	0.499	0.518	0.613	0.543	0.528	0.483	0.521	0.964	0.875	0.932	1		0.229	0.233	0.279	0.236
NCI-H358	0.147	0.143	0.126	0.143	0.352	0.343	0.301	0.323	0.692	0.598	0.663	0.936	0.185	0.197	0.233	0.487	0.392
NCI-H441	0.349	0.386	0.351	0.538	0.503	0.492	0.352	0.494	0.955	0.774	0.984	1.12		0.623	0.689	0.55	0.456
NCI-H460	0.209	0.172	0.166	0.0854	0.361	0.153	0.295	0.257	1.06	0.998	1.12	1.08	0.43	0.529	0.615	0.509	0.571
NCI-H520	0.712	0.799	0.589	0.649	0.282	0.216	0.25	0.306	0.876	0.73	0.607	0.744	0.223	0.24	0.199	0.179	0.177
NCI-H522	0.736	0.759	0.708	0.74										0.862	0.671	0.83	0.899
NCI-H1299					0.802	0.65	0.554	0.547	1.15	1.14	1.15	1.22					
NCI-H1563					0.685	0.626	0.594	0.625	1.04	0.914	1	0.822	0.408	0.46	0.459	0.461	0.456
NCI-H1623									0.819	0.81	0.835	0.744		0.521	0.585	0.611	0.619
NCI-H1648	0.395	0.579	0.593	0.435													
NCI-H1703					0.229	0.277	0.218	0.263	0.32	0.367	0.325	0.395					
NCI-H1792	0.425	0.394	0.397	0.482	0.228	0.222	0.22	0.247						0.839	0.892	0.857	0.905
NCI-H2342	0.686	1.01	0.871	0.835					0.887	1.07	1.02	1.14	0.288	0.309	0.344	0.323	0.334
